Laboratory results from US20240407413A1, “Concentrates Compromising Stevia Blends and Uses” (The Coca-Cola Company, priority 2018, published 2024).

Assays:
[1] = Appearance of 0.3 wt % syrup concentrates diluted from super concentrates; format: physicochemical; conditions: 0.3 wt % (5.5+1 syrup concentration) in water, mixed at room temperature for 90 hours
Experimental: The final syrup concentrations are provided below:
The 2 wt % super concentrates were then diluted to a 5.5+1 syrup concentration (0.3 wt %) with water and mixed at room temperature for 90 hours.

[2] = Solubility in mock syrup system (0.3%); format: physicochemical

C=C1C[C@@]23CC[C@H]4[C@@](C)(CCC[C@@]4(C)C(=O)O[C@@H]4O[C@H](CO)[C@@H](O)[C@H](O[C@@H]5O[C@H](CO)[C@@H](O)[C@H](O)[C@H]5O)[C@H]4O[C@@H]4O[C@@H](C)[C@H](O)[C@@H](O)[C@H]4O)[C@@H]2CC[C@]1(O[C@@H]1O[C@H](CO)[C@@H](O)[C@H](O[C@@H]2O[C@H](CO)[C@@H](O)[C@H](O)[C@H]2O)[C@H]1O[C@@H]1O[C@H](CO)[C@@H](O)[C@H](O)[C@H]1O)C3 [Reb N]
Observations [1]: cloudy

C=C1C[C@@]23CCC4[C@](C)(C(=O)OC5OC(CO)C(O)C(OC6OC(CO)C(O)C(O)C6O)C5OC5OC(CO)C(O)C(O)C5O)CCC[C@@]4(C)[C@@H]2CCC1(OC1OC(CO)C(O)C(OC2OC(CO)C(O)C(O)C2O)C1OC1OC(CO)C(O)C(O)C1O)C3 (stereo partly drawn) [Reb-M, 13-[(2-O-β-D-glucopyranosyl-3-O-β-D-glucopyranosyl-β-D-glucopyranosyl)oxy] ent kaur-16-en-19-oic acid-[(2-O-β-D-glucopyranosyl-3-O-β-D-glucopyranosyl-β-D-glucopyranosyl) ester]]
Solubility in Syrup System (0.3%) ([2]; 500 ppm in citric buffer): No
Solubility in Syrup System (0.3%) ([2]; 512 ppm in citric buffer): No
